Results on two compounds are retold here after patent US20030008843A1, “Bulking agents as satiety agents” (priority 2001, published 2003).

The conditions of experiment [1]: after ingestion of 25 g xylitol; control 58±5 min; cited from earlier work.
The conditions of experiment [2]: after oral preloading of 25 g xylitol with water, cited from earlier work.
Experiment [3] can be described thus: ad libitum test lunch energy intake 1.5 hours after yoghurt pre-load, days 1 and 10 (Example 1). In kind it is in vivo, human. As to conditions: for difference in average test meal energy intake versus control (significance): paired comparison; for difference in average test meal energy intake versus control (significance) / combined (pre-load and test lunch) energy intake versus control (significance): p<0.05; for combined (pre-load and test lunch) energy intake versus control (significance): post-hoc paired comparisons. The text has this: Eight female and seven male subjects with mean ages ranging from about 29.5 to 30.7 yr. were used in the study. They were lean (having BMI of 21.6 Kg/m^2-23.8 Kg/m^2), and they exercised between 2-3 times per week. There were four experimental conditions that all subjects completed in a counterbalanced order with each condition separated by a one-week washout period. During each experimental condition, subjects were provided with either control or test yoghurts to consume as part of their normal diet for 10 consecutive days. The four experimental conditions differed according to the type of carbohydrate added to the yoghurt consumed: [table] Volunteers were required to consume one portion (200 g) of yoghurt on each of the 10 days. Therefore, energy content of the yoghurts varied between the four yoghurt formulations while weight was held constant. Subjects consumed the yoghurts for 10 consecutive days. However, days 2-9 were free-living during which time they were not required to visit the human appetite research unit (HARU), where the studies described hereinbelow were performed. On days 1 and 10 (test days), subjects were required to visit the HARU for a fixed breakfast at 8:30 a.m. and an ad libitum test lunch. The energy and nutrient content of the breakfast, was fixed for each of the conditions. Immediately after breakfast subjects were free to leave the unit and instructed to consume the yoghurt at 11:00am and not to consume any other food or drink during the breakfast-lunch interval. At 12:30 subjects returned to the unit for the ad libitum test lunch and were instructed to eat until a comfortable level of fullness. The food was weighed immediately before and after the test lunch to determine the energy and nutrient of food consumed. The test lunch was mixed composition (31% Fat, 53% Carbohydrate and 16% Protein) and consisted of sandwiches, […] fruit. Immediately after the test lunch subjects were provided with their yoghurts for days 2-9 and were instructed to return at 8:30 on day 10. On days 1 and 10, volunteers were provided with an ad libitum lunch 1.5 hours following consumption of the yoghurt pre-load.

The conditions of experiment [4]: humans; cited from earlier work.

For the compound `OC[C@@H](O)[C@H](O)[C@@H](O)CO` [Xyl, Xylitol], the “gastric emptying T-1/2” value in experiment [1] was 91 ± 7 min. Moreover, in experiment [2], the “reduction in calories versus control” value is listed as 25%. Moreover, in experiment [2] (control 920±60 Kcal), the food intake is 690 ± 45 kcal. The “Suppression (%) in energy intake compared with the control yoghurt, All” value in experiment [3] (all subjects, 25 g/day in 200 g yoghurt, test lunch 1.5 h after pre-load) worked out at 11.9%. In addition, the “Suppression (%) in combined preload plus test meal energy intake compared with the control yoghurt, All” value in experiment [3] (all subjects, energy content of pre-load accounted for) stood at 14.8%. Further, in experiment [3] (females, energy content of pre-load accounted for), the “Suppression (%) in combined preload plus test meal energy intake compared with the control yoghurt, Females” value came to 11.6%. The “Suppression (%) in energy intake compared with the control yoghurt, Females” value in experiment [3] (females, test lunch 1.5 h after pre-load) is listed as 6.4%. Also, the “Suppression (%) in combined preload plus test meal energy intake compared with the control yoghurt, Males” value in experiment [3] (males, energy content of pre-load accounted for) stood at 16.1%. Also, in experiment [3] (males, test lunch 1.5 h after pre-load), the “Suppression (%) in energy intake compared with the control yoghurt, Males” value worked out at 15.3%. In addition, in experiment [3], the “difference in average test meal energy intake versus control (significance)” value was “statistically significant”; the “combined (pre-load and test lunch) energy intake versus control (significance)” value is listed as “significantly lower”. Besides, in experiment [3] (listed as xylitol), the “difference in average test meal energy intake versus control (significance)” value is given as “significant reduction”; the “combined (pre-load and test lunch) energy intake versus control (significance)” value was “significant calorie reduction”.
As to `CCCCCCCCCCC[C@@H](C[C@@H]1OC(=O)[C@H]1CCCCCC)OC(=O)[C@H](CC(C)C)NC=O` [tetrahydrolipostatin], the “reduction of human absorption of fat” value in experiment [4] is given as 30%.
